Active and inactive are the calls of the source. The rule behind the calls is not given here.
Legend:
Format in all cases: functional
A549 = assay: cells; conditions: Homo sapiens, time 24-72 hrs
Description: Antiproliferative activity against human A549 cells assessed as inhibition of cell growth at 10 uM measured after 24 to 72 hrs by SRB method relative to control

EKVX = assay: cells; conditions: Homo sapiens, time 24-72 hrs
Description: Antiproliferative activity against human EKVX cells assessed as inhibition of cell growth at 10 uM measured after 24 to 72 hrs by SRB method relative to control

NCI-H23 = assay: cells; conditions: Homo sapiens, time 24-72 hrs
Description: Antiproliferative activity against human NCI-H23 cells assessed as inhibition of cell growth at 10 uM measured after 24 to 72 hrs by SRB method relative to control

HOP-92 = assay: cells; conditions: Homo sapiens, time 24-72 hrs
Description: Antiproliferative activity against human HOP-92 cells assessed as inhibition of cell growth at 10 uM measured after 24 to 72 hrs by SRB method relative to control

HOP-62 = assay: Antiproliferative activity against human HOP-62 cells assessed as inhibition of cell growth at 10 uM measured after 24 to 72 hrs by SRB method relative to control; conditions: time 24-72 hrs
NCI-H322M = assay: Antiproliferative activity against human NCI-H322M cells assessed as inhibition of cell growth at 10 uM measured after 24 to 72 hrs by SRB method relative to control; conditions: time 24-72 hrs
NCI-H226 = assay: cells; conditions: Homo sapiens, time 24-72 hrs
Description: Antiproliferative activity against human NCI-H226 cells assessed as inhibition of cell growth at 10 uM measured after 24 to 72 hrs by SRB method relative to control

NCI-H522 = assay: Antiproliferative activity against human NCI-H522 cells assessed as inhibition of cell growth at 10 uM measured after 24 to 72 hrs by SRB method relative to control; conditions: time 24-72 hrs
NCI-H460 = assay: cells; conditions: Homo sapiens, time 24-72 hrs
Description: Antiproliferative activity against human NCI-H460 cells assessed as inhibition of cell growth at 10 uM measured after 24 to 72 hrs by SRB method relative to control

COc1cc2c(c(OC)c1OC)CCC(c1cccc(NC(=O)c3cccc(Br)c3)c1)O2 (stereo not given)
inhibition at 10 µM (A549): 18.8% | inhibition at 10 µM (EKVX): 15.4% | inhibition at 10 µM (NCI-H23): 4.86% | inhibition at 10 µM (HOP-92): 6.02% | inhibition at 10 µM (HOP-62): 0.21% | inhibition at 10 µM (NCI-H322M): 1.51% | inhibition at 10 µM (NCI-H226): 6.31% | inhibition at 10 µM (NCI-H522): 19%

COc1cc2c(c(OC)c1OC)CCC(c1cccc(NC(=O)c3ccc([N+](=O)[O-])cc3)c1)O2 (stereo not given)
inhibition at 10 µM (A549): 32.2% | inhibition at 10 µM (EKVX): 35.4% | inhibition at 10 µM (NCI-H23): 34.2% | inhibition at 10 µM (HOP-92): 15.7% | inhibition at 10 µM (HOP-62): 7.28% | inhibition at 10 µM (NCI-H322M): 11% | inhibition at 10 µM (NCI-H226): 50.7% | inhibition at 10 µM (NCI-H460): 29% | inhibition at 10 µM (NCI-H522): 32.5%

COc1cc2c(c(OC)c1OC)CCC(c1cccc(NC(=O)c3ccc(Br)cc3)c1)O2 (stereo not given)
inhibition at 10 µM (A549): 32.6% | inhibition at 10 µM (EKVX): 22.8% | inhibition at 10 µM (NCI-H23): 19.9% | inhibition at 10 µM (HOP-92): 41.5% | inhibition at 10 µM (HOP-62): 12.8% | inhibition at 10 µM (NCI-H322M): 24.9% | inhibition at 10 µM (NCI-H226): 27.6% | inhibition at 10 µM (NCI-H460): 6.47% | inhibition at 10 µM (NCI-H522): 25.4%

COc1cc2c(c(OC)c1OC)CCC(c1cccc(C(=O)NC(C)C)c1)O2 (stereo not given)
inhibition at 10 µM (A549): 1.14% | inhibition at 10 µM (NCI-H23): 6.78% | inhibition at 10 µM (HOP-92): 19.7% | inhibition at 10 µM (HOP-62): 1.41% | inhibition at 10 µM (NCI-H322M): 4.16% | inhibition at 10 µM (NCI-H226): 16.4% | inhibition at 10 µM (NCI-H460): 2.47% | inhibition at 10 µM (NCI-H522): 17%

COc1cc2c(c(OC)c1OC)CCC(c1cccc(C(=O)Nc3cccc(Br)c3)c1)O2 (stereo not given)
inhibition at 10 µM (A549): 35.5% | inhibition at 10 µM (EKVX): 49.6% | inhibition at 10 µM (NCI-H23): 22.5% | inhibition at 10 µM (HOP-92): 93.8% | inhibition at 10 µM (HOP-62): 3.19% | inhibition at 10 µM (NCI-H322M): 49.1% | inhibition at 10 µM (NCI-H226): 30.1% | inhibition at 10 µM (NCI-H460): 29.5% | inhibition at 10 µM (NCI-H522): 51.2%

COc1cc2c(c(OC)c1OC)CCC(c1cccc(NC(=O)C(C)C)c1)O2 (stereo not given)
inhibition at 10 µM (A549): 10.7% | inhibition at 10 µM (NCI-H23): 2.65% | inhibition (HOP-62): inactive | inhibition (NCI-H322M): inactive | inhibition at 10 µM (NCI-H226): 3.99% | inhibition at 10 µM (NCI-H522): 9.48%

COc1cc2c(c(OC)c1OC)CCC(c1cccc(C(=O)Nc3ccc(Br)cc3)c1)O2 (stereo not given)
inhibition at 10 µM (A549): 35.8% | inhibition at 10 µM (EKVX): 39.5% | inhibition at 10 µM (NCI-H23): 24.2% | inhibition at 10 µM (HOP-92): 83% | inhibition at 10 µM (HOP-62): 18% | inhibition at 10 µM (NCI-H322M): 50% | inhibition at 10 µM (NCI-H226): 37.3% | inhibition at 10 µM (NCI-H460): 16% | inhibition at 10 µM (NCI-H522): 51.1%

COc1ccccc1C(=O)Nc1cccc(C2CCc3c(cc(OC)c(OC)c3OC)O2)c1 (stereo not given)
inhibition at 10 µM (A549): 11.7% | inhibition at 10 µM (EKVX): 2.25% | inhibition at 10 µM (NCI-H23): 0.42% | inhibition at 10 µM (HOP-92): 4.05% | inhibition at 10 µM (HOP-62): 4.59% | inhibition at 10 µM (NCI-H322M): 3.14% | inhibition at 10 µM (NCI-H226): 8.5% | inhibition at 10 µM (NCI-H460): 2.38% | inhibition at 10 µM (NCI-H522): 19.7%

COc1cc2c(c(OC)c1OC)CCC(c1cccc(NC(=O)c3ccccc3Br)c1)O2 (stereo not given)
inhibition at 10 µM (A549): 13.8% | inhibition at 10 µM (EKVX): 7.82% | inhibition at 10 µM (NCI-H23): 5.1% | inhibition at 10 µM (HOP-92): 8.39% | inhibition at 10 µM (HOP-62): 2.7% | inhibition at 10 µM (NCI-H322M): 6.37% | inhibition at 10 µM (NCI-H226): 14.6% | inhibition at 10 µM (NCI-H522): 20.7%

COc1cc2c(c(OC)c1OC)CCC(c1cccc(NC(=O)c3ccc(C#N)cc3)c1)O2 (stereo not given)
inhibition at 10 µM (A549): 29.4% | inhibition at 10 µM (EKVX): 29% | inhibition at 10 µM (NCI-H23): 28.1% | inhibition at 10 µM (HOP-92): 10.6% | inhibition at 10 µM (HOP-62): 21.8% | inhibition at 10 µM (NCI-H322M): 11.1% | inhibition at 10 µM (NCI-H226): 28.8% | inhibition at 10 µM (NCI-H460): 5.83% | inhibition at 10 µM (NCI-H522): 42.8%

COc1cccc(NC(=O)c2cccc(C3CCc4c(cc(OC)c(OC)c4OC)O3)c2)c1 (stereo not given)
inhibition at 10 µM (A549): 29.2% | inhibition at 10 µM (EKVX): 30.9% | inhibition at 10 µM (NCI-H23): 26.1% | inhibition at 10 µM (HOP-92): 73.7% | inhibition at 10 µM (HOP-62): 14.8% | inhibition at 10 µM (NCI-H322M): 45.8% | inhibition at 10 µM (NCI-H226): 46.3% | inhibition at 10 µM (NCI-H460): 16% | inhibition at 10 µM (NCI-H522): 46.9%

COc1ccccc1NC(=O)c1cccc(C2CCc3c(cc(OC)c(OC)c3OC)O2)c1 (stereo not given)
inhibition at 10 µM (A549): 9.57% | inhibition at 10 µM (EKVX): 5.98% | inhibition at 10 µM (NCI-H23): 1.98% | inhibition at 10 µM (HOP-92): 9.4% | inhibition at 10 µM (HOP-62): 8.84% | inhibition at 10 µM (NCI-H322M): 11.4% | inhibition at 10 µM (NCI-H226): 8.23% | inhibition at 10 µM (NCI-H460): 2.86% | inhibition at 10 µM (NCI-H522): 27.7%

COc1cc2c(c(OC)c1OC)CCC(c1cccc(C(=O)Nc3ccc([N+](=O)[O-])cc3)c1)O2 (stereo not given)
inhibition at 10 µM (A549): 44.8% | inhibition at 10 µM (EKVX): 44.6% | inhibition at 10 µM (NCI-H23): 52.8% | inhibition at 10 µM (HOP-92): 57.4% | inhibition at 10 µM (HOP-62): 23.3% | inhibition at 10 µM (NCI-H322M): 31.7% | inhibition at 10 µM (NCI-H226): 51.7% | inhibition at 10 µM (NCI-H460): 41.1% | inhibition at 10 µM (NCI-H522): 50.4%

COc1cccc(C(=O)Nc2cccc(C3CCc4c(cc(OC)c(OC)c4OC)O3)c2)c1 (stereo not given)
inhibition at 10 µM (A549): 22.1% | inhibition at 10 µM (EKVX): 15.2% | inhibition at 10 µM (NCI-H23): 10.2% | inhibition at 10 µM (HOP-92): 13% | inhibition at 10 µM (HOP-62): 8.46% | inhibition at 10 µM (NCI-H322M): 18.6% | inhibition at 10 µM (NCI-H226): 24% | inhibition at 10 µM (NCI-H460): 4.3% | inhibition at 10 µM (NCI-H522): 33.5%

COc1cc(C(=O)Nc2cccc(C3CCc4c(cc(OC)c(OC)c4OC)O3)c2)cc(OC)c1OC (stereo not given)
inhibition at 10 µM (A549): 27.6% | inhibition at 10 µM (EKVX): 19.5% | inhibition at 10 µM (NCI-H23): 6.7% | inhibition at 10 µM (HOP-92): 48.9% | inhibition at 10 µM (HOP-62): 26.1% | inhibition at 10 µM (NCI-H322M): 3.54% | inhibition at 10 µM (NCI-H226): 23.8% | inhibition at 10 µM (NCI-H460): 12.7% | inhibition at 10 µM (NCI-H522): 56.8%

COc1cc2c(c(OC)c1OC)CCC(c1cccc(C(=O)Nc3cccc(Cl)c3)c1)O2 (stereo not given)
inhibition at 10 µM (A549): 38.5% | inhibition at 10 µM (EKVX): 35.8% | inhibition at 10 µM (NCI-H23): 14.2% | inhibition at 10 µM (HOP-92): 91.5% | inhibition at 10 µM (HOP-62): 20.4% | inhibition at 10 µM (NCI-H322M): 48.3% | inhibition at 10 µM (NCI-H226): 34.4% | inhibition at 10 µM (NCI-H460): 15% | inhibition at 10 µM (NCI-H522): 48.3%

COc1cc2c(c(OC)c1OC)CCC(c1cccc(C(=O)Nc3ccccc3Br)c1)O2 (stereo not given)
inhibition at 10 µM (A549): 18.9% | inhibition at 10 µM (EKVX): 9.92% | inhibition at 10 µM (NCI-H23): 2.79% | inhibition at 10 µM (HOP-92): 33.7% | inhibition at 10 µM (HOP-62): 7.73% | inhibition at 10 µM (NCI-H322M): 5.11% | inhibition at 10 µM (NCI-H226): 7.74% | inhibition at 10 µM (NCI-H522): 19.9%

COc1cc2c(c(OC)c1OC)CCC(c1cccc(C(=O)Nc3ccccc3)c1)O2 (stereo not given)
inhibition at 10 µM (A549): 15.8% | inhibition at 10 µM (EKVX): 9.05% | inhibition at 10 µM (NCI-H23): 15.3% | inhibition at 10 µM (HOP-92): 77.9% | inhibition at 10 µM (HOP-62): 6.18% | inhibition at 10 µM (NCI-H322M): 41.1% | inhibition at 10 µM (NCI-H226): 25.6% | inhibition at 10 µM (NCI-H460): 12.2% | inhibition at 10 µM (NCI-H522): 38%

COc1cc2c(c(OC)c1OC)CCC(c1cccc(C(=O)Nc3ccc(C#N)cc3)c1)O2 (stereo not given)
inhibition at 10 µM (A549): 49.1% | inhibition at 10 µM (EKVX): 39.9% | inhibition at 10 µM (NCI-H23): 59.4% | inhibition at 10 µM (HOP-92): 47.7% | inhibition at 10 µM (HOP-62): 27.9% | inhibition at 10 µM (NCI-H322M): 22.6% | inhibition at 10 µM (NCI-H226): 67% | inhibition at 10 µM (NCI-H460): 43.5% | inhibition at 10 µM (NCI-H522): 61.6%

COc1cc2c(c(OC)c1OC)CCC(c1cccc(NC(=O)c3cccc(Cl)c3)c1)O2 (stereo not given)
inhibition at 10 µM (A549): 15% | inhibition at 10 µM (EKVX): 14.1% | inhibition at 10 µM (NCI-H23): 7.27% | inhibition at 10 µM (HOP-92): 16.9% | inhibition at 10 µM (HOP-62): 7.17% | inhibition at 10 µM (NCI-H322M): 9.74% | inhibition at 10 µM (NCI-H226): 20.2% | inhibition at 10 µM (NCI-H460): 3.06% | inhibition at 10 µM (NCI-H522): 37.9%

COc1cc2c(c(OC)c1OC)CCC(c1cccc(NC(=O)c3ccccc3)c1)O2 (stereo not given)
inhibition at 10 µM (A549): 19.5% | inhibition at 10 µM (NCI-H23): 15.6% | inhibition at 10 µM (HOP-92): 5.1% | inhibition at 10 µM (HOP-62): 1.13% | inhibition at 10 µM (NCI-H322M): 5.18% | inhibition at 10 µM (NCI-H226): 19.8% | inhibition at 10 µM (NCI-H522): 24.3%
